In brackets after ≈: the same amount, converted by molar mass. Read-outs that look alike come from different tables or passages of the source.
Columns and labels:
[1] = Allopregnanolone solubility in SBE-β-CD solution; type: physicochemical; details: for solubility: aqueous with cosolvent or surfactant or cyclodextrin
Protocol: The solubilized fraction of allopregnanolone began to decline, as observed by precipitation, when allopregnanolone concentration was above 8 mg/ml. The amount of allopregnanolone in the cyclodextrin solution can only be enabled by up to about 0.6% w/w loading amount of the composition fill. Moreover, high cyclodextrin amounts required to solubilize allopregnanolone also present safety concerns. In some aspects, the compositions and dosage forms of this invention can comprise higher allopregnanolone loading amounts (>5 mg/ml or 5 mg/g) than ones formulated in non-encapsulated SBE-β-CD or any cyclodextrin solution composition.

[2] = in vivo; cited from earlier work
[3] = oral daily doses of 16-24 g for 14 days, human volunteers; cited from earlier work
a1b2g2 GABAA receptor = a1b2g2 GABAA receptor (Homo sapiens, UniProt P14867+P47870); details: synaptic GABAA receptor; cited from earlier work
[4] = once daily 30 mg capsule, 14 day treatment; cited from earlier work
[5] = 30 mg capsule, cited from earlier work

a1b2g2 GABAA receptor, sequence (P14867 28-456): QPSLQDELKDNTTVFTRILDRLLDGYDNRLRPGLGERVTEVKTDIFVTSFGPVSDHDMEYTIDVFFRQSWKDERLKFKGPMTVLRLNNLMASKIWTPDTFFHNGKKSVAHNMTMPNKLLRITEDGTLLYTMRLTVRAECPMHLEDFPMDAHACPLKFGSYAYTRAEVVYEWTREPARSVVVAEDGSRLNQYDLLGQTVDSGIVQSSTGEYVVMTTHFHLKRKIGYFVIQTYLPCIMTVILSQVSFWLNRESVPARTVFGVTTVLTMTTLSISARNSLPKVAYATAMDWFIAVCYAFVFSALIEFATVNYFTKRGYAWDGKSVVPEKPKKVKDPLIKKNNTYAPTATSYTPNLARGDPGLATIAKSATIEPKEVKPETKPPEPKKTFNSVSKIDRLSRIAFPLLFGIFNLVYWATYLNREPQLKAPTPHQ
a1b2g2 GABAA receptor, sequence (P47870 25-512 limits assumed): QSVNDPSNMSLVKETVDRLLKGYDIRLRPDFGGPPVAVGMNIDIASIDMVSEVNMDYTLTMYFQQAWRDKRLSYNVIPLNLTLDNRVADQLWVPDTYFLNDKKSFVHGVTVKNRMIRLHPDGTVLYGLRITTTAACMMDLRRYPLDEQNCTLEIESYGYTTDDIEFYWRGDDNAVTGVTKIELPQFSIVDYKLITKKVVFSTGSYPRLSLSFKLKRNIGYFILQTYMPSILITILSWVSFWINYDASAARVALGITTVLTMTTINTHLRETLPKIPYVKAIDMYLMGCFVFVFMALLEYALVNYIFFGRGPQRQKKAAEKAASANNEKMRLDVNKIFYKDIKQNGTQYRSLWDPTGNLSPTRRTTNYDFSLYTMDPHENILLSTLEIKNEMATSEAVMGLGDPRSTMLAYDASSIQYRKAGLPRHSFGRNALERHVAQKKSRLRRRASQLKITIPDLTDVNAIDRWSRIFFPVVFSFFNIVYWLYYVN
a1b2g2 GABAA receptor, sequence (P18507 40-475 partner): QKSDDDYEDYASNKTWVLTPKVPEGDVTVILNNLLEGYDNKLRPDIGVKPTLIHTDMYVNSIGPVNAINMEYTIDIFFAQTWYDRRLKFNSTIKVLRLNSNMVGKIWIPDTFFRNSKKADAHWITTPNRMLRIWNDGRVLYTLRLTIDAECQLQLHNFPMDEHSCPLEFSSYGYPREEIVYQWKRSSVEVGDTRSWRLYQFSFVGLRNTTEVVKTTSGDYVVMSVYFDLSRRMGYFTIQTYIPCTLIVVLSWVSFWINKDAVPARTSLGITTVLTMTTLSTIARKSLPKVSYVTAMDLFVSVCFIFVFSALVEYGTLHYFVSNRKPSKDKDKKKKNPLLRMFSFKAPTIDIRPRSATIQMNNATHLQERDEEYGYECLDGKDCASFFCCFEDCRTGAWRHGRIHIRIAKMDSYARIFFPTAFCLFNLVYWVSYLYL

With `CC(=O)[C@H]1CC[C@H]2[C@@H]3CC[C@H]4C[C@H](O)CC[C@]4(C)[C@H]3CC[C@]12C` [allopregnanolone, 3α-hydroxy-5α-pregnan-20-one] the solubility ([1]; cyclodextrin (SBE-β-CD) solution, read-out: allopregnanolone concentration above which the solubilized fraction declined (precipitation)) was over 8000 µg/mL, the solubility ([1]; in 24% w/v non-encapsulated SBE-β-CD solution, read-out: allopregnanolone solubility) was about 6000 µg/mL (≈ 18.8 mM) and the “loading amount of the composition fill enabled in cyclodextrin solution” value ([1]; cyclodextrin solution) was “up to 0.6 % w/w”. For the same compound, the oral bioavailability [2] was “low”.
For hydroxy propyl-β-CD, the digestive problems [3] is listed as “increased incidence of soft stools and diarrhea”.
For `C[C@@]1(O)CC[C@H]2[C@H](CC[C@@H]3[C@@H]2CC[C@]2(C)[C@@H](C(=O)Cn4cc(C#N)cn4)CC[C@@H]32)C1` [ZURANOLONE], the “less potent than allopregnanolone, based on a1b2g2 Qpatch EC50” value (a1b2g2 GABAA receptor) is given as “about 33%”, the “efficacy in postpartum depression” value [4] is given as “acceptable efficacy” and the Cmax ([5]; single dose with a standard fat meal) is given as “about 64 ng/ml”. The Cmax ([5]; single dose, fasted condition) was “about 23 ng/ml”.

From patent US12186327B2, “Oral allopregnanolone compositions and methods of use” (Lipocine Inc., priority 2022, dated 2025)
